Results: US20230277483A1, “COMPOSITIONS AND METHODS TO TREAT INFLAMMATION” (University of Iowa Research Foundation, priority 2022, published 2023)

How the values were obtained:
[1] = tested on: oral and fecal microbiomes of obese mice; assay: Oral and fecal microbiome composition (16S rRNA) in DIO mice; type: in vivo, mouse; conditions: 100 μl of HCA at 0.2 and 0.5 μM I.P. three times a week for 3 weeks
Procedure: HCA promotes proliferation of health related bacteria and inhibits proliferation and attachment of periodontopathogenic bacteria. Promoting the growth of health-related commensal bacteria while inhibiting proliferation and attachment of pathogenic bacteria may be effective at preventing or treating periodontal inflammation. To determine if HCA has an effect on the growth properties of commensal bacteria and periodontopathogens, HCA at different concentrations was added to aerobic culture of S. mitis and S. oralis and anaerobic culture of T. denticola as described in our published manuscript (see detail in Shu et al, Journal of Periodontology, 2022). FIGS. 18A-C summarize the functions of HCA on the proliferation of specific commensal and pathogenic bacteria. […] Furthermore, the function of HCA on P. gingivalis attachment, a key parameter of adhesion and biofilm formation by periodontopathogenic bacteria, was investigated. […] The composition of the microbiomes was determined by amplifying the V3 and V4 regions of the 16S rRNA genes. Raw data in FASTQ format were filtered and denoised using DADA2 (Divisive Amplicon Denoising Algorithm) to generate amplicon sequence variants (ASV) or operational taxonomical units (OTUs) that were then analyzed by QIIME2.

C57BL/6J mice = assay: Pg-LPS gingival injection mouse model of periodontal inflammation; type: in vivo; conditions: 100 μl of HCA at 0.5 μM I.P. three times a week, 3 weeks
[2] = tested on: human gingival fibroblasts (HGF); assay: Proinflammatory cytokines after Pg-LPS challenge (qRT-PCR, ELISA, antibody array); type: cell-based
Procedure: Sg metabolites modulate proinflammatory cytokines in human periodontal associated cells in vitro. Sg were cultured in a total of 40 ml DMEM for 24 hrs. After 200 μl of Sg suspension reached 0.2 at OD600 value in a 96-well plate, the Sg metabolites were collected by centrifugation at 3000 g for 10 min and then filtered through a 0.22 μm filter. No toxicity of Sg metabolites was detected using an MTT assay on primary human bone marrow mesenchymal stromal cells (BMSCs) and primary human gingival fibroblasts (HGF) (data no shown). The modulation of Sg metabolites on inflammatory cytokines was tested using human monocyte-derived macrophages (MDM) and HGF. The MDM were generated by inducing a human macrophage cell line (THP-1) using PMA at 10 ng/ml. The MDM at 2×10^6 cells/per well and HGF at 2×10^4 cells/per well were cultured in 24-well plates using DMEM with 10% FBS and 1% PS. The Sg metabolites at 1 and 5% v/v were added and incubated for 24 hrs before challenging with Pg-LPS at 100 ng/ml.
L-Norleucine as well as other metabolites modulate proinflammatory cytokines in macrophages and HGF. L-Norleucine was obtained commercially (Sigma) and dissolved in DMEM. Mouse macrophages and human HGF were cultured with DMEM supplemented with different concentrations of L-Norleucine and subsequently challenged with Pg-LPS at 100 ng/ml.
Human monocyte-derived macrophages (MDM) using THP-1 cells and HGF were cultured in a 24-well plate with DMEM and challenged with Pg-LPS at 100 ng/ml.
In addition, freshly isolated epidydimal white adipose tissues (eWAT) from mice on a HFD for 16 weeks were minced and cultured in 24-well plates and treated with HCA at 0.5 and 1.0 μM in DMEM/F-12 containing 10% cosmic calf serum (CCS) and 1% penicillin-streptomycin (basal growth media, BGM). […] These preliminary data are strong evidence that Sg metabolites have the potential to modulate host inflammatory responses and attenuate inflammation.
HCA promotes proliferation of health related bacteria and inhibits proliferation and attachment of periodontopathogenic bacteria. Promoting the growth of health-related commensal bacteria while inhibiting proliferation and attachment of pathogenic bacteria may be effective at preventing or treating periodontal inflammation. To determine if HCA has an effect on the growth properties of commensal bacteria and periodontopathogens, HCA at different concentrations was added to aerobic culture of S. mitis and S. oralis and anaerobic culture of T. denticola as described in our published manuscript (see detail in Shu et al, Journal of Periodontology, 2022). FIGS. 18A-C summarize the functions of HCA on the proliferation of specific commensal and pathogenic bacteria. […] Furthermore, the function of HCA on P. gingivalis attachment, a key parameter of adhesion and biofilm formation by periodontopathogenic bacteria, was investigated. […] Attachment measurements of P. gingivalis were performed based on our published studies (see detail in Shu et al, Journal of Periodontology, 2022). […] To test the biocompatibility and anti-inflammatory properties of HCA, human monocyte-derived macrophages (MDM) and gingival fibroblasts (HGF) were prepared as described in our previous studies. The cells were then treated with HCA from 0.1 to 50 μM. No toxicity was observed after treatment with different concentrations of HCA in either cell type using an MTT assay (FIGS. 19A and B, left column). The anti-inflammatory function of HCA on MDM and HGF after exposure to P. gingivalis lipopolysaccharide (PG-LPS) was investigated. […] HCA mitigates inflammation and affects the composition of microbiomes in vivo. Recent studies investigated whether HCA modulates periodontal inflammation using a mouse model. To induce periodontal inflammation, a total of 1 μl Pg-LPS at 10 μg/μl was directly injected twice a week into the interdental region between maxillary molars of C57BL/6J mice using a Hamilton1700 series syringe according to our previously published studies. […]

Compound: O=C(O)CCCCCO [HCA, 6-hydroxycaproic acid]
- effect on composition of the microbiomes [1]: dose dependent
- representation of Streptococcus danieliae and other unclassified streptococci in the oral microbiome [1]: large increases
- serum IL-1β production (ELISA) (C57BL/6J mice): significantly reduced
- gingival IL-1β expression (qRT-PCR) (C57BL/6J mice; Pg-LPS twice a week): suppressing gingival IL-1β expression
- transcripts of IL-1β, IL-6, and IL-8 ([2]; HCA at 0.1 μM, 6 hours following PG-LPS challenge at 0.1 μg/mL): significantly downregulated
- protein levels of IL-6 and IL-8 ([2]; HCA at 0.1 μM, HGF lysate, after 24 hrs): significantly reduced
- transcripts of IL-1β, 6, and 8 ([2]; HCA at 0.1 and 1.0 μM, Pg-LPS at 100 ng/ml, after 6 hrs): significantly downregulated
- proinflammatory cytokines (transcripts of IL-1β, 6 and 8) ([2]; at 0.1 μg after Pg-LPS challenge): modulate
